Test results reported in PMC9805530 (European journal of medicinal chemistry, 2022).
“Also recorded” adds a separate entry of the source.

How the values were obtained:
[1] = tested on: BV2 cells; assay: LPS-induced inflammatory gene mRNA expression; conditions: 30 μM pretreatment 30 minutes, 100 ng/mL LPS 6 hours
[2] = target: T1, Sirt5 (Homo sapiens, UniProt Q9NXA8); assay: Fluorogenic Sirt5 Assay Kit; format: biochemical; conditions: 100 μM compounds, 37 °C 30 min
T1 sequence (Q9NXA8 37-310): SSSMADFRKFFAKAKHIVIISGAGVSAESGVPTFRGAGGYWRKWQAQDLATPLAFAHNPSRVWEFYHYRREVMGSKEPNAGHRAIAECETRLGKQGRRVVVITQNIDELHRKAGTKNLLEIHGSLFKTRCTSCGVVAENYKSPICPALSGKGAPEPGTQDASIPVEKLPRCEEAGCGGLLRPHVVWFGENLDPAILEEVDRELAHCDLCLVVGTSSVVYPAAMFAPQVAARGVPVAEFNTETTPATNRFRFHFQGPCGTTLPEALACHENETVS

[3] = target: T2, Sirt2 (Homo sapiens, UniProt Q8IXJ6); assay: Sirt2 deacetylation Activity Assay Kit; conditions: time course, Fig. 3
T2 sequence (Q8IXJ6 1-389): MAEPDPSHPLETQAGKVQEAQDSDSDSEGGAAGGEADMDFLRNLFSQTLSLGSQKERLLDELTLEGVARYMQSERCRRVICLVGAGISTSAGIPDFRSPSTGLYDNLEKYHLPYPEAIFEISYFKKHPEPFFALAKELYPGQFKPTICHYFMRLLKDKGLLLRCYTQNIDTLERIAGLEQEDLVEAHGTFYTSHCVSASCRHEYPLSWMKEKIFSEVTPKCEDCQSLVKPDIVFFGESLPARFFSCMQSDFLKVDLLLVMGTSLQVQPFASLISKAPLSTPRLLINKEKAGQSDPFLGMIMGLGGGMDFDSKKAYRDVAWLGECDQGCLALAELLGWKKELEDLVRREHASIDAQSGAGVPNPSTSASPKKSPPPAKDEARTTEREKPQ

[4] = target: T3, Sirt1 (Homo sapiens, UniProt Q96EB6); assay: Sirt1 deacetylation Activity Assay Kit; conditions: time course, Fig. 3
T3 sequence (Q96EB6 1-747): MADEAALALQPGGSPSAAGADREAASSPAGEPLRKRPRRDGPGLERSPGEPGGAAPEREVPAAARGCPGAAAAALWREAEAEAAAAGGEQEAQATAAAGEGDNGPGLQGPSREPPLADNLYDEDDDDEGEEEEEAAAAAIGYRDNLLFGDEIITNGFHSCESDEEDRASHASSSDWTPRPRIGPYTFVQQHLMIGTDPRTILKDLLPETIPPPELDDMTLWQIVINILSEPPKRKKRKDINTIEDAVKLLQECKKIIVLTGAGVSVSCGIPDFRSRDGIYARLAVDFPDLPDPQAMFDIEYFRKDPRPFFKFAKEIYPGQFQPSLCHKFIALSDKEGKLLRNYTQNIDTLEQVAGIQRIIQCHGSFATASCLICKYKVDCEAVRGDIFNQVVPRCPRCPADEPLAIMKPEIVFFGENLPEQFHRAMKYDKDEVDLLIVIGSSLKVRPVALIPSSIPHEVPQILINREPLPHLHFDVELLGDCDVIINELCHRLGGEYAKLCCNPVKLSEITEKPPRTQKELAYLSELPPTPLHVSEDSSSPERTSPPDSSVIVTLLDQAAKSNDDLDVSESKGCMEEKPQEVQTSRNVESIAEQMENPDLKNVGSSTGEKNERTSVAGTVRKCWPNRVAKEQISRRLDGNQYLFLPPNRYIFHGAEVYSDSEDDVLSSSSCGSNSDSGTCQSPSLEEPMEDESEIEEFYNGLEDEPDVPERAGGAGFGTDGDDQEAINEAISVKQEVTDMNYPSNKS

[5] = target: T4, Sirt6 (Homo sapiens, UniProt Q8N6T7); assay: Sirt6-dependent peptide deacetylation, Fluor de Lys; conditions: for effect on Sirt6 activity (time course): Fig. 3A; for Activation Fold 30 μM: compound at 30 μM; for Activation Fold 30 μM / Activation Fold 100 μM: mean ± SD, at least two independent experiments; for Activation Fold 100 μM: compound at 100 μM
[6] = target: T4, Sirt6; format: biochemical; conditions: 100 μM, 30 °C, 60 minutes
[7] = tested on: H1299 cells; assay: Colony formation assay; format: cell-based; conditions: 30 μM, one week
[8] = tested on: PLC/PRF/5 cells; assay: Acetylated H3K9 to total H3 in cancer cells; format: cell-based; conditions: 30 μM, 24 hours
[9] = tested on: H1299 cells; assay: Acetylated H3K9 to total H3 in cancer cells; format: cell-based; conditions: 30 μM, 24 hours
[10] = tested on: PLC/PRF/5 cells; assay: Colony formation assay; format: cell-based; conditions: 30 μM, one week
[11] = tested on: R28 cells; assay: MTT cell viability assay; format: cell-based; conditions: 100 μM, 24 hours

T4 sequence (Q8N6T7 whole entry): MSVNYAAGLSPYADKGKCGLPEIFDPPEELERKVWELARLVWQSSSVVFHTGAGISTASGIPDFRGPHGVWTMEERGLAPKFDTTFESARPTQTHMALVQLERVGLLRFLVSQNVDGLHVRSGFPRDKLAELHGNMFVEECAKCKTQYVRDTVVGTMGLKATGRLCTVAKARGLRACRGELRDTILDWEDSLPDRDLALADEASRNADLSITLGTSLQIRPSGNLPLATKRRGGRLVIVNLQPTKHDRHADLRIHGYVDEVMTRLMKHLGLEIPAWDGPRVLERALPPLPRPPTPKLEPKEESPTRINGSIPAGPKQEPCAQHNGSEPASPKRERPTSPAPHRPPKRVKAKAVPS

Row | SMILES | ICAM-1 induction [1] | LPS-induced CXCL10 expression [1] | LPS-induced expression of IL-1β [1] | LPS-induced expression of IL-6 [1] | LPS-induced expression of MCP-1 [1] | LPS-induced expression of TNFα [1] | LPS-induced iNOS expression [1] | effect on Sirt5 desuccinylation activity [2] | effect on Sirt2 deacetylation activity [3] | effect on Sirt1 deacetylation activity [4] | effect on Sirt6 activity (time course) [5] | Activation Fold 100 μM [5] | acetylation of H3K9 in the nucleosome test [6] | further results
1 | c1ccc2c(c1)NC(c1cccnc1N1CCN(CCn3ccnc3)CC1)c1cccn1-2 (stereo not drawn) [Compound 50, 4-(2-(4-(2-(1H-Imidazol-1-yl)ethyl)piperazin-1-yl)pyridin-3-yl)-4,5-dihydropyrrolo[1,2-a]quinoxaline] | slight inhibition | significantly repressed | strongly inhibited; also recorded: almost reversed | strongly inhibited; also recorded: almost reversed | strongly inhibited; also recorded: almost reversed | strongly inhibited | significantly repressed | no significant effects | no significant effects | no significant effects | specifically promoted | 6.29 ± 0.02 fold | significantly decreased | Activation Fold 30 μM [5]: 3.34 ± 0.19 fold
2 | OCCN1CCN(c2ncccc2C2Nc3ccccc3-n3cccc32)CC1 (stereo not drawn) [Compound 35, 2-(4-(3-(4,5-Dihydropyrrolo[1,2-a]quinoxalin-4-yl)pyridin-2-yl)piperazin-1-yl)ethan-1-ol] | slight inhibition |  | strongly inhibited | strongly inhibited | strongly inhibited | strongly inhibited |  | no significant effects | no significant effects | no significant effects | specifically promoted |  | significantly decreased | inhibition of colony formation [7]: only a slight inhibitory effect; Sirt6-dependent deacetylation of H3K9 (acetylated H3K9 to total H3) [8]: no obvious influence; Sirt6-dependent deacetylation of H3K9 (acetylated H3K9 to total H3) [9]: no obvious influence; inhibition of colony formation [10]: only a slight inhibitory effect; toxicity on R28 cells [11]: no obvious toxicity
3 | FC1(F)CCN(c2ncccc2C2Nc3ccccc3-n3cccc32)CC1 (stereo not drawn) [Compound 25, 4-(2-(4,4-Difluoropiperidin-1-yl)pyridin-3-yl)-4,5-dihydropyrrolo[1,2-a]quinoxaline] |  |  |  |  |  |  |  |  |  |  |  | ~ 2 fold |  | 
4 | OC1CN(CCN2CCN(c3ncccc3C3Nc4ccccc4-n4cccc43)CC2)C1 (stereo not drawn) [Compound 46, 1-(2-(4-(3-(4,5-Dihydropyrrolo[1,2-a]quinoxalin-4-yl)pyridin-2-yl)piperazin-1-yl)ethyl)azetidin-3-ol] |  | significantly repressed | strongly inhibited; also recorded: almost reversed | strongly inhibited; also recorded: almost reversed | strongly inhibited; also recorded: almost reversed | strongly inhibited | significantly repressed | no significant effects | no significant effects | no significant effects | specifically promoted |  | significantly decreased | VCAM-1 induction [1]: obviously inhibit
5 | c1ccc2c(c1)NC(c1cccnc1N1CCN(CCN3CCCC3)CC1)c1cccn1-2 (stereo not drawn) [Compound 47, 4-(2-(4-(2-(Pyrrolidin-1-yl)ethyl)piperazin-1-yl)pyridin-3-yl)-4,5-dihydropyrrolo[1,2-a]quinoxaline] | slight inhibition | significantly repressed | strongly inhibited; also recorded: almost reversed | strongly inhibited; also recorded: almost reversed | strongly inhibited; also recorded: almost reversed | strongly inhibited | significantly repressed | no significant effects | no significant effects | no significant effects | specifically promoted | 5.38 ± 0.29 fold | no effect | VCAM-1 induction [1]: obviously inhibit; Activation Fold 30 μM [5]: 4.80 ± 0.19 fold
6 | O=S1(=O)CCN(c2ncccc2C2Nc3ccccc3-n3cccc32)CC1 (stereo not drawn) [Compound 26, 4-(3-(4,5-Dihydropyrrolo[1,2-a]quinoxalin-4-yl)pyridin-2-yl)thiomorpholine 1,1-dioxide] |  |  |  |  |  |  |  |  |  |  |  | ~ 2 fold |  | 
7 | COCCN1CCN(c2ncccc2C2Nc3ccccc3-n3cccc32)CC1 (stereo not drawn) [Compound 36, 4-(2-(4-(2-Methoxyethyl)piperazin-1-yl)pyridin-3-yl)-4,5-dihydropyrrolo[1,2-a]quinoxaline] |  |  | strongly inhibited | strongly inhibited | strongly inhibited | strongly inhibited |  | no significant effects | no significant effects | no significant effects | specifically promoted |  | significantly decreased | inhibition of colony formation [7]: about half; Sirt6-dependent deacetylation of H3K9 (acetylated H3K9 to total H3) [8]: significantly activated Sirt6 to deacetylate H3K9; decrease of acetylated H3K9 when Sirt6 knockdown by siRNA ([8]; Sirt6 siRNA): abolished; Sirt6-dependent deacetylation of H3K9 (acetylated H3K9 to total H3) [9]: significantly activated Sirt6 to deacetylate H3K9; decrease of acetylated H3K9 when Sirt6 knockdown by siRNA ([9]; Sirt6 siRNA): abolished; inhibition of colony formation [10]: about half; toxicity on R28 cells [11]: no obvious toxicity
8 | OC1CCN(c2ncccc2C2Nc3ccccc3-n3cccc32)CC1 (stereo not drawn) [Compound 27, 1-(3-(4,5-Dihydropyrrolo[1,2-a]quinoxalin-4-yl)pyridin-2-yl)piperidin-4-ol] |  |  |  |  |  |  |  |  |  |  |  | ~ 2 fold |  | 
